According to patent US10906938B2, “Cell epitopes and combination of cell epitopes for use in the immunotherapy of myeloma and other cancers” (Immatics Biotechnologies GmbH, priority 2015, dated 2021):

Assays:
MM.1S cells = assay: HLA class I ligand presentation upon carfilzomib treatment on MM.1S cells (LC-MS/MS); type: cell-based, human; parameters: key to modulation upon carfilzomib-treatment 24 #1 / modulation upon carfilzomib-treatment 24 #2 / modulation upon carfilzomib-treatment 24 #3 / modulation upon carfilzomib-treatment 48 #1 / modulation upon carfilzomib-treatment 48 #2 / modulation upon carfilzomib-treatment 48 #3: −1: significantly down-modulated; 0: not signifcant/not detected; 1: significantly up-modulated; settings: MM.1S cells; for modulation upon carfilzomib-treatment 24 #1 / modulation upon carfilzomib-treatment 24 #2 / modulation upon carfilzomib-treatment 24 #3: 24 h after carfilzomib treatment (100 nM, 1 h); for modulation upon carfilzomib-treatment 24 #1 / modulation upon carfilzomib-treatment 48 #1: biological replicate #1; for modulation upon carfilzomib-treatment 24 #1 / modulation upon carfilzomib-treatment 24 #2 / modulation upon carfilzomib-treatment 24 #3 / modulation upon carfilzomib-treatment 48 #1 / modulation upon carfilzomib-treatment 48 #2 / modulation upon carfilzomib-treatment 48 #3: vs mock-treated controls; for modulation upon carfilzomib-treatment 24 #2 / modulation upon carfilzomib-treatment 48 #2: biological replicate #2; for modulation upon carfilzomib-treatment 24 #3 / modulation upon carfilzomib-treatment 48 #3: biological replicate #3; for modulation upon carfilzomib-treatment 48 #1 / modulation upon carfilzomib-treatment 48 #2 / modulation upon carfilzomib-treatment 48 #3: 48 h after carfilzomib treatment (100 nM, 1 h)
Experimental: (§1) HLA class I and II molecules were isolated using standard immunoaffinity purification as described using the pan-HLA class I specific mAb W6/32, the pan-HLA class II specific mAb T039 and the HLA-DR specific mAB L243 (produced in house).
(§2) HLA ligand extracts were analyzed in 5 technical replicates as described previously. In brief, peptide samples were separated by nanoflow HPLC (RSLCnano, ThermoFisher) using a 50 μm×25 cm PepMap RSLC column (Thermo Fisher) and a gradient ranging from 2.4 to 32.0% acetonitrile over the course of 90 min. Eluting peptides were analyzed in an online coupled LTQ Orbitrap XL mass spectrometer (Thermo Fisher) using a top 5 CID (collision induced dissociation) fragmentation method.
(§3) Data processing was performed as described previously. In brief, the Mascot search engine (Mascot 2.2.04; Matrix Science, London, UK) was implemented to search the human proteome as comprised in the Swiss-Prot database (20,279 reviewed protein sequences, September 2013) without enzymatic restriction. Potential mutated HLA ligands were searched implementing a database containing the human proteome concatenated with proteins containing single amino acid variants (SAVs) listed in the COSMIC database (http://cancer.sanger.ac.uk/cosmic/). Only recurrent SAVs described in 2 or more samples of hematological origin were included. Oxidized methionine was allowed as a dynamic modification. The false discovery rate was estimated using the Percolator algorithm and set to 5%. Peptide lengths were limited to 8-12 amino acids for HLA class I and 12-25 amino acids for HLA class II. Protein inference was disabled, allowing for multiple protein annotations of peptides. HLA annotation was performed using SYFPEITHI [46] or an extended in-house database. Experimental validation of peptide identifications and HLA annotations was performed by mass spectrometric and functional characterization of synthetic peptides for a subset of peptides.
(§4) The inventors quantitatively assessed HLA class I ligand presentation during proteasome inhibitor therapy. Observed was a considerable plasticity of the HLA class I ligandome after treatment with carfilzomib with 17.9±1.1% of MM.1S ligands and 11.2±0.7% of U266 ligands (mean of three biological replicates ±s.d.) showing significant modulation (fold-change ≥4, Po0.01 after Benjamini-Hochberg correction) at t24 h compared with mock-treated controls. Briefly, Cultured MCLs (MM.1S and U266) and primary myeloma samples were incubated with carfilzomib (100 nM, Kyprolis®, available, e.g., from Onyx Pharmaceuticals, Inc.) as an example for a proteasome inhibitor for a 1-h period, followed by three washes in PBS (Gibco) and recultured for additional 24 or 48 h. Controls were incubated with vehicle control (glucose 5%) for 1 h, followed by identical washing and incubation for 24 or 48 h. Experiments were conducted in three biological replicates where indicated.

U266 cells = assay: HLA class I ligand presentation upon carfilzomib treatment on U266 cells (LC-MS/MS); type: cell-based, human; parameters: key to modulation upon carfilzomib-treatment 24 #1 / modulation upon carfilzomib-treatment 24 #2 / modulation upon carfilzomib-treatment 24 #3 / modulation upon carfilzomib-treatment 48 #1 / modulation upon carfilzomib-treatment 48 #2 / modulation upon carfilzomib-treatment 48 #3: −1: significantly down-modulated; 0: not signifcant/not detected; 1: significantly up-modulated; settings: U266 cells, vs mock-treated controls; for modulation upon carfilzomib-treatment 24 #1 / modulation upon carfilzomib-treatment 24 #2 / modulation upon carfilzomib-treatment 24 #3: 24 h after carfilzomib treatment (100 nM, 1 h); for modulation upon carfilzomib-treatment 24 #1 / modulation upon carfilzomib-treatment 48 #1: biological replicate #1; for modulation upon carfilzomib-treatment 24 #2 / modulation upon carfilzomib-treatment 48 #2: biological replicate #2; for modulation upon carfilzomib-treatment 24 #3 / modulation upon carfilzomib-treatment 48 #3: biological replicate #3; for modulation upon carfilzomib-treatment 48 #1 / modulation upon carfilzomib-treatment 48 #2 / modulation upon carfilzomib-treatment 48 #3: 48 h after carfilzomib treatment (100 nM, 1 h)
Experimental: as §1, §2, §3, §4

[1] = 24 h after carfilzomib treatment

Row | Sequence | modulation upon carfilzomib-treatment 24 #1 (MM.1S cells) | modulation upon carfilzomib-treatment 24 #2 (MM.1S cells) | modulation upon carfilzomib-treatment 24 #3 (MM.1S cells) | modulation upon carfilzomib-treatment 48 #1 (MM.1S cells) | modulation upon carfilzomib-treatment 48 #2 (MM.1S cells) | modulation upon carfilzomib-treatment 48 #3 (MM.1S cells) | biological replicates with significant up-modulation (MM.1S cells; [1]) | modulation of peptide presentation upon carfilzomib treatment (MM.1S cells; [1]) | modulation upon carfilzomib-treatment 24 #1 (U266 cells) | modulation upon carfilzomib-treatment 24 #2 (U266 cells) | modulation upon carfilzomib-treatment 24 #3 (U266 cells) | modulation upon carfilzomib-treatment 48 #1 (U266 cells) | modulation upon carfilzomib-treatment 48 #2 (U266 cells) | modulation upon carfilzomib-treatment 48 #3 (U266 cells)
1 | NEVIMTIGF | 0 | 0 | 0 | 0 | 1 | 0 | – | – | – | – | – | – | – | –
2 | SYLNSVQRL | 0 | 0 | 0 | 0 | 0 | 0 | – | – | – | – | – | – | – | –
3 | AFIQAGIFQEF | −1 | 0 | −1 | 0 | 0 | −1 | – | – | – | – | – | – | – | –
4 | YVFPGVTRL | 0 | 0 | 0 | −1 | 0 | 0 | – | – | – | – | – | – | – | –
5 | LAFPGEMLL | 0 | 0 | 0 | 0 | 0 | 0 | – | – | – | – | – | – | – | –
6 | FAQIISVALI | 0 | 0 | 0 | 0 | 0 | 0 | – | – | – | – | – | – | – | –
7 | SEFDFFERL | 0 | 0 | 0 | 0 | 0 | −1 | – | – | – | – | – | – | – | –
8 | VPLTRVSGGAA | 1 | 1 | 1 | 1 | 1 | 1 | – | – | – | – | – | – | – | –
9 | YYLNEIQSF | 0 | 0 | 0 | 0 | 0 | 0 | – | – | – | – | – | – | – | –
10 | EYGHIPSF (listed as Homo sapiens) [SEQ ID NO: 42] | – | – | – | – | – | – | 2/3 | significant up-modulation | – | – | – | – | – | –
11 | RYSTQIHSF | 0 | 0 | 0 | 0 | 0 | 0 | – | – | – | – | – | – | – | –
12 | RYSPVLSRF | 0 | 0 | 0 | 0 | 0 | 0 | – | – | – | – | – | – | – | –
13 | TASPLVKSV | 0 | 0 | 0 | 0 | 1 | 0 | – | – | – | – | – | – | – | –
14 | RYFKGPELL | 0 | 0 | 0 | 0 | 0 | 0 | – | – | – | – | – | – | – | –
15 | KLSSLIILM | – | – | – | – | – | – | – | – | 0 | 0 | 0 | 0 | 0 | 0
16 | KPKDPLKISL | – | – | – | – | – | – | – | – | −1 | −1 | −1 | 0 | −1 | −1
17 | SESLPVRTL | – | – | – | – | – | – | – | – | 0 | 0 | 0 | 0 | 0 | 0
18 | ILWETVPSM | – | – | – | – | – | – | – | – | 0 | 0 | 0 | 0 | 0 | 0
19 | GPRPITQSEL | – | – | – | – | – | – | – | – | 0 | 0 | 0 | 0 | 0 | 0
20 | IIFDRPLLY | – | – | – | – | – | – | – | – | 0 | 0 | 0 | 0 | 0 | −1
21 | APRHPSTNSLL | – | – | – | – | – | – | – | – | 0 | 1 | 0 | 1 | 1 | 0
22 | KEGLILPETL | – | – | – | – | – | – | – | – | 1 | 1 | 0 | 0 | 0 | 0
23 | GEVAPSMFL | – | – | – | – | – | – | – | – | 0 | 0 | 0 | 0 | 0 | 0
24 | KAMEAASSL | – | – | – | – | – | – | – | – | −1 | −1 | −1 | −1 | −1 | −1
25 | RPGPPTRPL | – | – | – | – | – | – | – | – | 0 | 0 | 0 | 0 | 0 | 0
26 | GEVQDLLVRL | – | – | – | – | – | – | – | – | 0 | 0 | 0 | 0 | 0 | 0
